Test results as given in ChEMBL document CHEMBL6109137, “Design, Synthesis, Evaluation, and SAR of 5-Phenylisoindoline Derivatives, a Potent Class of Small-Molecule Inhibitors Targeting the Programmed Cell Death-1/Programmed Cell Death-Ligand 1 (PD-1/PD-L1) Interaction” (J Med Chem, 2025).
Activity calls are given as the source filed them. The rule behind the calls is not given here.

Columns and labels:
[1] = Toxicity in C57BL/6J mouse implanted with mouse MC38 cells assessed as change in body weight at 5 to 20 mg/kg, ip qd for 13 days; format: organism-based; settings: in vivo, 312 h, dose 5-20 mg/kg, time 13 day
[2] = biological target: Programmed cell death protein 1/Programmed cell death 1 ligand 1 (Homo sapiens, UniProt Q9NZQ7); test: Inhibition of interaction of PD-1/PD-L1 (unknown origin) by HTRF analysis; format: protein-complex assay
Chain of Programmed cell death protein 1/Programmed cell death 1 ligand 1 (Q15116 whole entry): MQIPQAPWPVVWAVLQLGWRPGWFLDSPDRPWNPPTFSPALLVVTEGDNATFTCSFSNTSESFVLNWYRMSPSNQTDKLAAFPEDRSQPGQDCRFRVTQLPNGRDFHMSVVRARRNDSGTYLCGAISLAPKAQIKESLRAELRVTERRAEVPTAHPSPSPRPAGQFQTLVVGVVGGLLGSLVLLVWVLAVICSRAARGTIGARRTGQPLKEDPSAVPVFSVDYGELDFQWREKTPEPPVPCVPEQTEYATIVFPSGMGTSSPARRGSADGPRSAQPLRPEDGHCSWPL
Chain of Programmed cell death protein 1/Programmed cell death 1 ligand 1 (Q9NZQ7 whole entry): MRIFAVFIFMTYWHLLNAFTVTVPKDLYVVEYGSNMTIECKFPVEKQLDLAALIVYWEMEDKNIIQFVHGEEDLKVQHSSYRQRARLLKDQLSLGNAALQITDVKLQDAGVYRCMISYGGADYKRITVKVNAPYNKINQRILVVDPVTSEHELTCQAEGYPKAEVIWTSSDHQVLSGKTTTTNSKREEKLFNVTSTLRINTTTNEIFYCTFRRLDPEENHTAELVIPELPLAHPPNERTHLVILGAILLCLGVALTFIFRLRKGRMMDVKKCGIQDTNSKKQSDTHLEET

[3] = Binding affinity to human PD-L1 assessed as dissociation constant by SPR analysis
[4] = biological target: Programmed cell death protein 1/Programmed cell death 1 ligand 1 (Homo sapiens) (UniProt Q15116+Q9NZQ7); test: Inhibition of PD-1/PD-L1 (unknown origin) interaction in human PBMC cells assessed as increase in IFN-gamma level at 100 nM pretreated with anti-CD3/CD28 and PD-L1 followed by compound addition measured after 72 hrs by ELISA; format: cell-based
[5] = Cytotoxicity against human PBMC cells assessed as inhibition of cell viability by CCK8 assay; format: toxicity, cell-based
[6] = Cytotoxicity against HEK293T cells measured after 48 hrs by MTT assay; format: toxicity, cell-based, HEK-293T; settings: human
[7] = Cytotoxicity against mouse MC38 cells measured after 48 hrs by MTT assay; format: toxicity, cell-based, MC-38
[8] = Stability in human plasma at 1 mM measured up to 7 hrs by HPLC analysis; format: ADME, cell-free; settings: 1000 µM
MC-38 [9] = test: Inhibition of PD-L1-induced cell migration in mouse MC38 cells at 5 uM measured up to 24 hrs by scratch assay; format: functional, cell-based
[10] = Half life in Sprague-Dawley rat at 1 mg/kg, iv measured for 24 hrs by LC-MS/MS analysis; format: ADME, organism-based; settings: in vivo
[11] = AUC (0 to infinity) in Sprague-Dawley rat at 1 mg/kg, iv measured for 24 hrs by LC-MS/MS analysis; format: ADME, organism-based; settings: in vivo
[12] = Clearance in Sprague-Dawley rat at 10 mg/kg, ip measured for 24 hrs by LC-MS/MS analysis; format: ADME, organism-based; settings: in vivo
[13] = AUC (0 to infinity) in Sprague-Dawley rat at 10 mg/kg, ip measured for 24 hrs by LC-MS/MS analysis; format: ADME, organism-based; settings: in vivo
[14] = Half life in Sprague-Dawley rat at 20 mg/kg, po measured for 24 hrs by LC-MS/MS analysis; format: ADME, organism-based; settings: in vivo
[15] = Tmax in Sprague-Dawley rat at 20 mg/kg, po measured for 24 hrs by LC-MS/MS analysis; format: ADME, organism-based; settings: in vivo
[16] = Cmax in Sprague-Dawley rat at 20 mg/kg, po measured for 24 hrs by LC-MS/MS analysis; format: ADME, organism-based; settings: in vivo
MC-38 [17] = test: Antitumor activity against mouse MC38 cells implanted in C57BL/6J mouse administered intraperitoneally once a day for 13 days; format: functional, cell-based; settings: dose 5-20 mg/kg, route ip, time 13.0 day
MC-38 [18] = test: Antitumor activity against mouse MC38 cells implanted in C57BL/6J mouse at 5 to 20 mg/kg, ip qd for 13 days relative to control; format: functional; settings: dose 5-20 mg/kg, time 13 day
[19] = Toxicity in C57BL/6J mouse implanted with mouse MC38 cells assessed as change in excised body weight at 5 to 20 mg/kg, ip qd for 13 days; format: organism-based; settings: in vivo, 312 h, dose 5-20 mg/kg, time 13 day
[20] = Toxicity in C57BL/6J mouse implanted with mouse MC38 cells assessed as change in liver index at 5 to 20 mg/kg, ip qd for 13 days; format: organism-based; settings: in vivo, 312 h, dose 5-20 mg/kg, time 13 day
[21] = Toxicity in C57BL/6J mouse implanted with mouse MC38 cells assessed as change in lung index at 5 to 20 mg/kg, ip qd for 13 days; format: organism-based; settings: in vivo, 312 h, dose 5-20 mg/kg, time 13 day
[22] = Toxicity in C57BL/6J mouse implanted with mouse MC38 cells assessed as change in brain index at 5 to 20 mg/kg, ip qd for 13 days; format: organism-based; settings: in vivo, 312 h, dose 5-20 mg/kg, time 13 day
[23] = Toxicity in C57BL/6J mouse implanted with mouse MC38 cells assessed as injury in heart at 5 to 20 mg/kg, ip qd for 13 days by H and E staining based analysis; format: organism-based; settings: in vivo, 312 h, dose 5-20 mg/kg, time 13 day
[24] = Toxicity in C57BL/6J mouse implanted with mouse MC38 cells assessed as injury in spleen at 5 to 20 mg/kg, ip qd for 13 days by H and E staining based analysis; format: organism-based; settings: in vivo, 312 h, dose 5-20 mg/kg, time 13 day
[25] = Toxicity in C57BL/6J mouse implanted with mouse MC38 cells assessed as injury in kidney at 5 to 20 mg/kg, ip qd for 13 days by H and E staining based analysis; format: organism-based; settings: in vivo, 312 h, dose 5-20 mg/kg, time 13 day
MC-38 [26] = test: Antitumor activity against mouse MC38 cells implanted in C57BL/6J mouse assessed as increase in infiltration of CD8+ T cells at 5 to 20 mg/kg, ip qd for 13 days by IHC analysis; format: functional, organism-based; settings: dose 5-20 mg/kg, time 13.0 day
MC-38 [27] = test: Inhibition of cell proliferation of mouse MC38 cells implanted in C57BL/6J mouse assessed as reduction in Ki67 level at 5 to 20 mg/kg, ip qd for 13 days by IHC analysis; format: functional, organism-based; settings: dose 5-20 mg/kg, time 13.0 day
Mus musculus [28] = test: Restoration of immune function in C57BL/6J mouse implanted with mouse MC38 cells assessed as increase in serum TNF-alpha level administered intraperitoneally once daily for 13 days by ELISA; format: functional, organism-based; settings: dose 5-20 mg/kg, route ip, time 13.0 day
Mus musculus [29] = test: Restoration of immune function in C57BL/6J mouse implanted with mouse MC38 cells assessed as increase in serum IFN-gamma level administered intraperitoneally once daily for 13 days by ELISA; format: functional, organism-based; settings: dose 5-20 mg/kg, route ip, time 13.0 day
MC-38 [30] = test: Antitumor activity against mouse MC38 cells implanted in C57BL/6J mouse assessed as tumor growth inhibition at 160 mg/kg, IG qd; format: functional, organism-based; settings: time 7.0 day
[31] = Toxicity in C57BL/6J mouse implanted with mouse MC38 cells assessed as liver weight ratio at 40 to 160 mg/kg, IG qd for 7 days; format: organism-based; settings: in vivo, po, 168 h, dose 40-160 mg/kg, time 7 day
[32] = Toxicity in C57BL/6J mouse implanted with mouse MC38 cells assessed as spleen weight ratio at 40 to 160 mg/kg, IG qd for 7 days; format: organism-based; settings: in vivo, po, 168 h, dose 40-160 mg/kg, time 7 day
[33] = Toxicity in C57BL/6J mouse implanted with mouse MC38 cells assessed as lung weight ratio at 40 to 160 mg/kg, IG qd for 7 days; format: organism-based; settings: in vivo, po, 168 h, dose 40-160 mg/kg, time 7 day
[34] = Toxicity in C57BL/6J mouse implanted with mouse MC38 cells assessed as change in ureas level at 40 to 160 mg/kg, IG qd for 7 days; format: organism-based; settings: in vivo, po, 168 h, dose 40-160 mg/kg, time 7 day
[35] = Toxicity in C57BL/6J mouse implanted with mouse MC38 cells assessed as change in PCT count at 40 to 160 mg/kg, IG qd for 7 days; format: organism-based; settings: in vivo, po, 168 h, dose 40-160 mg/kg, time 7 day
[36] = Toxicity in C57BL/6J mouse implanted with mouse MC38 cells assessed as change in PDW count at 40 to 160 mg/kg, IG qd for 7 days; format: organism-based; settings: in vivo, po, 168 h, dose 40-160 mg/kg, time 7 day
[37] = Toxicity in C57BL/6J mouse implanted with mouse MC38 cells assessed as change in MCH count at 40 to 160 mg/kg, IG qd for 7 days; format: organism-based; settings: in vivo, po, 168 h, dose 40-160 mg/kg, time 7 day
[38] = Toxicity in C57BL/6J mouse implanted with mouse MC38 cells assessed as change in MCHC count at 40 to 160 mg/kg, IG qd for 7 days; format: organism-based; settings: in vivo, po, 168 h, dose 40-160 mg/kg, time 7 day

Structure (SMILES): C[C@H](N)C(=O)N1Cc2ccc(-c3cccc(-c4ccc5c(c4)OCCO5)c3Cl)cc2C1.Cl
- Activity [1]: Non-toxic
- IC50 [2]: 4.8 nM
- Kd [3]: 230 nM
- inhibition [4]: Active
- IC50 [5]: > 5000 nM
- IC50 at 48 h [6]: > 10000 nM
- IC50 at 48 h [7]: 12000 nM
- Stability [8]: Stable
- inhibition (MC-38 [9]): Active
- half-life [10]: 1.61 h
- AUC(0-inf) [11]: 191 ng·h/mL
- CL/F [12]: 103 mL/min/kg
- AUC(0-inf) [13]: 1620 ng·h/mL
- half-life [14]: 3.58 h
- Tmax [15]: 2.5 h
- Cmax [16]: 151 ng/mL
- Activity (MC-38 [17]): Dose-dependent-effect
- TGI (MC-38 [18]): 52.8%
- Activity [19]: Non-toxic
- Activity [20]: Non-toxic
- Activity [21]: Non-toxic
- Activity [22]: Non-toxic
- Activity [23]: Non-toxic
- Activity [24]: Non-toxic
- Activity [25]: Non-toxic
- Activity (MC-38 [26]): Active
- inhibition (MC-38 [27]): Active
- Activity (Mus musculus [28]): Dose-dependent-effect
- Activity (Mus musculus [29]): Dose-dependent-effect
- inhibition (MC-38 [30]): Time-dependent-effect
- Activity [31]: Non-toxic
- Activity [32]: Non-toxic
- Activity [33]: Non-toxic
- Activity [34]: Non-toxic
- Activity [35]: Non-toxic
- Activity [36]: Non-toxic
- Activity [37]: Non-toxic
- Activity [38]: Non-toxic
